The source of these data is ChEMBL document CHEMBL1201862, “PubChem BioAssay data set” (2004).

Holding throughout (assay): growth of human tumour cells (NCI), 48 h
Assay [1] deals with KM12.
Assay [2] concerns M14.
Assay [3] concerns NCI-H522.
In assay [4] the test system is HL-60.
Assay [5] deals with HT-29.
Assay [6] relates to LOX IMVI.
Assay [7] has as its system UACC-257.
Assay [8] deals with U-251.
For assay [9], the system named is SK-OV-3.
In assay [10] the test system is MOLT-4.
Assay [11] has as its system A549.
In assay [12] the test system is SK-MEL-5.
Assay [13] has as its system RPMI-8226.
In assay [14] the test system is NCI/ADR-RES.
The subject of assay [15] is CCRF-CEM.
The subject of assay [16] is SF-268.
Assay [17] deals with SK-MEL-28.
The test system of assay [18] is COLO 205.
Assay [19] concerns IGROV-1.
The subject of assay [20] is HOP-62.

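Exposure lasted 48 hours, with cells grown in 96-well plates and compounds tested at five concentrations. Here, GI50 denotes the concentration required for 50% inhibition of growth.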 The source made the active and inactive calls. Rule as the data show it: active = GI50 up to about 1.1 µM and inactive = higher. Some results are limits rather than exact numbers.

Take `CCOC(=O)C1=NN(c2ccc(Cl)cc2)C2=CC(C)=NN(C)C(=S)N21`: the GI50 in assay [1] was > 100 µM (inactive); in assay [2], 59.7 µM (inactive); in assay [3] it was 20.7 µM (inactive); in assay [4] it was > 100 µM (inactive); in assay [5] it was > 100 µM (inactive); in [6], 47.1 µM (inactive). Also, the GI50 is > 100 µM (inactive) in assay [7]; 25.9 µM (inactive) in assay [8]; 29.9 µM (inactive) in assay [9]; > 100 µM (inactive) in assay [10]; 95.7 µM (inactive) in assay [11]; > 100 µM (inactive) in assay [12]. In addition, the GI50 in [13] is > 100 µM (inactive); in assay [14], 65 µM (inactive); in [15], > 100 µM (inactive); in assay [16], 45.2 µM (inactive); in assay [17] it was > 100 µM (inactive); in assay [18], > 100 µM (inactive). In assay [19], the GI50 was 44.8 µM (inactive).

In the case of `CCCCCCSc1nc(N)nc2nc[nH]c12`, the GI50 is 55.6 µM (inactive) in assay [1]; 15.7 µM (inactive) in [3]; 19.6 µM (inactive) in [4]; 34.4 µM (inactive) in assay [5]; 26.1 µM (inactive) in assay [6]; 37.7 µM (inactive) in [7]. The GI50 in [8] was 35.4 µM (inactive); in assay [9], 28.8 µM (inactive); in assay [20], 34.5 µM (inactive); in assay [10], > 55.2 µM (inactive); in assay [11], 30 µM (inactive); in [12], 20.3 µM (inactive). Besides, the GI50 is 60.1 µM (inactive) in assay [13]; 37.5 µM (inactive) in assay [14]; 46.6 µM (inactive) in assay [15]; 46.7 µM (inactive) in assay [16]; 59.3 µM (inactive) in assay [17]; 38.9 µM (inactive) in [18]. Moreover, in assay [19], the GI50 was 30.5 µM (inactive).

Consider `CC[C@H]1CN2CCc3cc(OC)c(OC)cc3[C@@H]2C[C@@H]1C[C@H]1NCCc2cc(O)c(OC)cc21`, for which the GI50 in assay [1] was 0.0296 µM (active); in assay [3], 0.025 µM (active); in assay [4], 0.025 µM (active); in assay [5], 0.0319 µM (active); in assay [7] it was 0.0731 µM (active); in [8], 0.0333 µM (active). Besides, the GI50 was 0.0562 µM (active) in [9]; 0.0502 µM (active) in [10]; 0.025 µM (active) in assay [11]; 0.0592 µM (active) in assay [12]; 0.146 µM (active) in assay [13]; 0.543 µM (active) in assay [14]. For the same compound, the GI50 in [15] was 0.025 µM (active); in assay [16], 0.0557 µM (active); in assay [17], 0.041 µM (active); in [19], 0.0385 µM (active).

For `C=C1C[C@@H](O)C[C@@]2(C)C[C@@H]3OC(=O)C(=C)[C@@H]3C[C@H]12`, the GI50 in assay [1] was 6.62 µM (inactive); in [3], 7.78 µM (inactive); in assay [4] it was 1.89 µM (inactive); in assay [5], 2.94 µM (inactive); in assay [6], 4.46 µM (inactive); in assay [7], 4.43 µM (inactive). The GI50 in assay [8] is 12.2 µM (inactive); in assay [9], 20.7 µM (inactive); in [20], 15.4 µM (inactive); in assay [10], 3.2 µM (inactive); in assay [11] it was 23 µM (inactive); in [12], 3.51 µM (inactive). Further, the GI50 was 2.92 µM (inactive) in assay [13]; 6.55 µM (inactive) in assay [14]; 3.56 µM (inactive) in [15]; 5.46 µM (inactive) in [16]; 4.82 µM (inactive) in assay [17]; 1.61 µM (inactive) in assay [18]. Besides, the GI50 in [19] was 11.2 µM (inactive).

With `CN(C)CCOc1cc2c(c3ccccc13)-c1ccccc1C2=O`, the GI50 was 1.46 µM (inactive) in assay [1]; 1.32 µM (inactive) in [3]; 1.24 µM (inactive) in assay [4]; 1.19 µM (inactive) in [5]; 1.05 µM (active) in assay [6]; 1.72 µM (inactive) in [7]. Moreover, the GI50 in [8] was 2.16 µM (inactive); in assay [9], 7.53 µM (inactive); in assay [20] it was 1.19 µM (inactive); in assay [10] it was 0.339 µM (active); in [11] it was 9.62 µM (inactive); in [12] it was 1.58 µM (inactive). The GI50 is 1.56 µM (inactive) in [13]; 0.818 µM (active) in assay [14]; 1.52 µM (inactive) in [15]; 1.45 µM (inactive) in assay [16]; 1.8 µM (inactive) in [17]; 1.92 µM (inactive) in assay [18]. Further, the GI50 in assay [19] is 1.88 µM (inactive).

As to `CCN(CC)CCCNc1nc(=O)[nH]c(C)c1C(=O)Nc1ccc2c(c1)c1ccccc1n2CC`, the GI50 in assay [1], in [2], in assay [3], in [4], in assay [5] and in assay [6] was > 100 µM (inactive) each time. In addition, the GI50 in [7], in assay [8], in [9], in assay [20], in assay [10] and in assay [11] was > 100 µM (inactive) in each case. Moreover, the GI50 in assay [12], in assay [13], in [14], in assay [15], in [17] and in assay [18] was > 100 µM (inactive) throughout. The GI50 in [19] is > 100 µM (inactive).

Turning to `Cc1ccnc2nc(N)ccc12`, the GI50 in assay [1], in assay [2], in assay [3], in assay [4], in assay [5] and in assay [7] was > 100 µM (inactive) in each case. Moreover, the GI50 in [8], in assay [9], in assay [10], in assay [11], in [12] and in assay [13] was > 100 µM (inactive) throughout. Besides, the GI50 in assay [14], in [15], in assay [16], in assay [17], in assay [18] and in assay [19] was > 100 µM (inactive) each time.

With `C[S+](C)CC1OC(n2cnc3c(N)ncnc32)C(O)C1O` (stereo not given), the GI50 in [1], in [3], in [4], in assay [5], in assay [6] and in [7] was > 225 µM (inactive) in each case. The GI50 in assay [8], in [9], in [20], in assay [10], in [11] and in [12] was > 225 µM (inactive) in each case. In addition, the GI50 in [13], in [14], in [15], in assay [16], in [17] and in [18] was > 225 µM (inactive) throughout. In [19], the GI50 was > 225 µM (inactive).

Take `CC(=O)OCC1OC(Nc2ncc(-c3ccc(C)cc3)s2)C(OC(C)=O)C(OC(C)=O)C1OC(C)=O` (stereo not given): the GI50 in [1] is 36.1 µM (inactive); in assay [3], 64.9 µM (inactive); in assay [4] it was 21 µM (inactive); in assay [5], 29.2 µM (inactive); in assay [6] it was 26.9 µM (inactive); in assay [7] it was 25.6 µM (inactive). For the same compound, the GI50 is 56.8 µM (inactive) in [8]; 68.4 µM (inactive) in assay [9]; 52 µM (inactive) in [20]; 24.6 µM (inactive) in assay [10]; 44.5 µM (inactive) in assay [11]; 33.3 µM (inactive) in assay [12]. The GI50 in assay [13] is 24.7 µM (inactive); in assay [14], 26.3 µM (inactive); in assay [15], 29.1 µM (inactive); in [16], 45.5 µM (inactive); in assay [17] it was 39.1 µM (inactive); in [18], 40.5 µM (inactive). For the same compound, the GI50 in assay [19] was 66.5 µM (inactive).

Take `CCOC(=O)CNC(=O)NC12CC3CC(CC(C3)C1)C2`: the GI50 in [1] was 150 µM (inactive); in assay [3], 142 µM (inactive); in assay [4], 177 µM (inactive); in assay [5], 366 µM (inactive); in [6], 237 µM (inactive); in assay [7] it was 176 µM (inactive). The GI50 in assay [8] was 269 µM (inactive); in assay [9], > 418 µM (inactive); in [20] it was 185 µM (inactive); in assay [10] it was 180 µM (inactive); in [11], 229 µM (inactive); in [12] it was 131 µM (inactive). The GI50 in assay [13] is 274 µM (inactive); in assay [14], 305 µM (inactive); in [15], 182 µM (inactive); in assay [16] it was 284 µM (inactive); in assay [17], 179 µM (inactive); in [18], 137 µM (inactive). Besides, the GI50 in assay [19] was 240 µM (inactive).

Turning to `O=C(O)C(O)Cc1ccccn1` (stereo not given), the GI50 in [1], in assay [2], in [3], in [4], in assay [5] and in assay [6] was > 100 µM (inactive) each time. Besides, the GI50 in [7], in assay [8], in assay [9], in assay [20], in [11] and in [12] was > 100 µM (inactive) in each case. For the same compound, the GI50 in assay [13], in [14], in assay [15], in assay [16], in assay [17] and in [18] was > 100 µM (inactive) throughout. The GI50 in assay [19] is > 100 µM (inactive).
